We go through one compound from US12551482B2, “Aurora kinase inhibitors” (The Regents of the University of California, priority 2013, dated 2026).

What all share (experiment): Cancer cell line profiling, Genomics of Drug Sensitivity Project
One experiment concerns NBsusSR. The following applies: read-out: CD532 EC50 (uM).
For a further experiment, the system named is MZ7-mel.
Another experiment deals with HSC-2. The following applies: Homo sapiens, HSC-2, read-out: CD532 EC50 (uM).

Read-outs that look alike come from different tables or passages of the source.

The EC50 is the concentration giving half of the maximal effect. As to `O=C(Nc1ccc(Nc2nccc(Nc3cc(C4CCCC4)[nH]n3)n2)cc1)Nc1cccc(C(F)(F)F)c1` [CD532, 1-(4-((4-((5-cyclopentyl-1H-pyrazol-3-yl)amino)pyrimidin-2-yl)amino)phenyl)-3-(3-(trifluoromethyl)phenyl)urea], the EC50 with NBsusSR is 0.382 µM; in the experiment on MZ7-mel (read-out: CD532 EC50 (uM), MZ7-mel cell line, Skin), 0.73 µM; with MZ7-mel (read-out: CD532 EC50, MZ7-mel cell line, Skin), 0.556 µM; with HSC-2 it was 2.15 µM.
